Test results as given in paper PMC7481357, “N-terminal Myristoylation Enhanced the Antimicrobial Activity of Antimicrobial Peptide PMAP-36PW” (Frontiers in Cellular and Infection Microbiology, 2020).
No end group written: not given here.

What was measured:
S. aureus ATCC 25923 [1] = type: cell-based, Staphylococcus aureus; conditions: for MICs of different classes of antibiotics: S. aureus ATCC 25923, * indicates resistant (CLSI, 2020); for MICs: ATCC 25923, 18 h
Protocol: (§1) The MICs of Myr-36PW in vitro were measured through microdilution in accordance with the Clinical and Laboratory Standards Institute (CLSI, [2020]). The bacterial cells were cultured for 12 h at 37°C in the appropriate medium and then diluted to 1 × 10^6 CFU/mL. Equal volumes (100 μL) of bacterial cell suspension and two-fold serially diluted different concentrations peptides (0.0039–256 μg/mL) were added to each well of the sterile 96-well plate. The samples were incubated for 18 h at 37°C. After incubation, the MICs of the peptides were determined by evaluating the growth based on the OD600 of the cultures.

[2] = tested on: L. monocytogenes CICC 21634; type: cell-based, Listeria monocytogenes; conditions: for MICs of different classes of antibiotics: L. monocytogenes CICC 21634, * indicates resistant (CLSI, 2020); for MICs: CICC 21634, 18 h
Protocol: as §1

S. typhimurium SL 1344 = type: cell-based, Salmonella typhimurium; conditions: for MICs of different classes of antibiotics: S. typhimurium SL 1344, * indicates resistant (CLSI, 2020); for MICs: SL 1344, 18 h
Protocol: as §1

P. aeruginosa GIM 1.551 [3] = type: cell-based, Pseudomonas aeruginosa; conditions: for MICs of different classes of antibiotics: P. aeruginosa GIM 1.551, * indicates resistant (CLSI, 2020); for MICs: GIM 1.551, 18 h
Protocol: as §1

P. aeruginosa GIM 1.551 [4] = type: cell-based, Pseudomonas aeruginosa; conditions: GIM 1.551, 1 h
Protocol: (§2) The effects of abiotic factors on the antibacterial activity of Myr-36PW were investigated by MIC assay (Xi et al., [2013]; Zhong et al., [2019]). S. aureus ATCC 25923 and P. aeruginosa GIM 1.551 overnight cultures were diluted to 1 × 10^6 CFU/mL, and the MICs of peptides in MHB with different concentration of physiological salts (150 mM NaCL, 2 mM CaCL2) were determined. And after the peptides incubated in 10% mice serum for 1 h at 37°C, MICs of peptides against S. aureus ATCC 25923 and P. aeruginosa GIM 1.551 were determined. The MICs in MHB in the absence of physiological salts and serum were used as the control group.
(§3) Salt and serum stability in vitro were indicated by MIC assay. The concentrations of NaCl and CaCl2 were physiological concentration. 10% mice serum was inactivated by heat treatment for 15 min at 60 ℃。The control group was measured in the absence of physiological salts or serum in MHB.

S. aureus ATCC 25923 [5] = type: cell-based, Staphylococcus aureus; conditions: ATCC 25923, 1 h
Protocol: as §2, §3

| Molecule | MICs of different classes of antibiotics (S. aureus ATCC 25923 [1]) | MICs of different classes of antibiotics [2] | MICs of different classes of antibiotics (S. typhimurium SL 1344) | MICs of different classes of antibiotics (P. aeruginosa GIM 1.551 [3]) | MICs (S. aureus ATCC 25923 [1]) | MICs [2] | MICs (S. typhimurium SL 1344) | MICs (P. aeruginosa GIM 1.551 [3]) | MICs, CaCl2 (P. aeruginosa GIM 1.551 [4]) | MICs, Control (P. aeruginosa GIM 1.551 [4]) | MICs, NaCl (P. aeruginosa GIM 1.551 [4]) | MICs, Serum (P. aeruginosa GIM 1.551 [4]) | MICs, CaCl2 (S. aureus ATCC 25923 [5]) | MICs, NaCl (S. aureus ATCC 25923 [5]) | MICs, Serum (S. aureus ATCC 25923 [5]) |
| --- | --- | --- | --- | --- | --- | --- | --- | --- | --- | --- | --- | --- | --- | --- | --- |
| Colistin | 16* μg/mL | 8 µg/mL | 2 µg/mL | 4* μg/mL |  |  |  |  |  |  |  |  |  |  |  |
| Polymyxin B | 16* μg/mL | 8 µg/mL | 2 µg/mL | 4* μg/mL |  |  |  |  |  |  |  |  |  |  |  |
| NCC[C@H](O)C(=O)N[C@@H]1C[C@H](N)[C@@H](O[C@H]2O[C@H](CN)[C@@H](O)[C@H](O)[C@H]2O)[C@H](O)[C@H]1O[C@H]1O[C@H](CO)[C@@H](O)[C@H](N)[C@H]1O [Amikacin] | 4 µg/mL | 128* μg/mL | 32 µg/mL | >128* μg/mL |  |  |  |  |  |  |  |  |  |  |  |
| GRFRRLRKKTRKRLKKIGKVLKWIWWIVGSIPLGCG [PMAP-36PW] |  |  |  |  | 0.0078 µg/mL | 2 µg/mL | 16 µg/mL | 0.5 µg/mL | 1 µg/mL | 1 µg/mL | 1 µg/mL | 1 µg/mL |  |  |  |
| CNC(C)C1CCC(N)C(OC2C(N)CC(N)C(OC3OCC(C)(O)C(NC)C3O)C2O)O1 (stereo not drawn) [Gentamicin] | 4 µg/mL | 32* μg/mL | 8 µg/mL | 128* μg/mL |  |  |  |  |  |  |  |  |  |  |  |
| GRFRRLRKKTRKRLKKIGKVLKWIPPIVGSIPLGCG [PMAP-36] |  |  |  |  | 0.0156 µg/mL | 4 µg/mL | 32 µg/mL | 1 µg/mL | 2 µg/mL | 2 µg/mL | 2 µg/mL | 2 µg/mL | 0.0625 µg/mL | 0.0625 µg/mL | 0.0625 µg/mL |
| CC[C@H]1OC(=O)[C@H](C)[C@@H](O[C@H]2C[C@@](C)(OC)[C@@H](O)[C@H](C)O2)[C@H](C)[C@@H](O[C@@H]2O[C@H](C)C[C@H](N(C)C)[C@H]2O)[C@](C)(O)C[C@@H](C)CN(C)[C@H](C)[C@@H](O)[C@]1(C)O [Azithromycin] | 64* μg/mL | 64* μg/mL | >128* μg/mL | 128* μg/mL |  |  |  |  |  |  |  |  |  |  |  |
